From ChEMBL document CHEMBL3885881, “DrugMatrix”

Species: Rattus norvegicus
Experiment: DrugMatrix - Regimen: Daily Repeat
Type: toxicity, organism-based, Sprague-Dawley
Design: regimen Daily Repeat, gender Male, age 6-8 weeks
Settings: in vivo, po, 0 mg/kg, route oral GAVAGE, dose level Control, […]; for ABSOLUTE BASOPHIL / ABSOLUTE EOSINOPHIL / ABSOLUTE LYMPHOCYTE / ABSOLUTE MONOCYTE / ABSOLUTE SEGMENTED NEUTROPHIL / BASOPHIL / EOSINOPHIL / ERYTHROCYTE COUNT / HEMATOCRIT / HEMOGLOBIN / LEUKOCYTE COUNT / LYMPHOCYTE / MEAN CORPUSCULAR HEMOGLOBIN / MEAN CORPUSCULAR HEMOGLOBIN CONCENTRATION / MEAN CORPUSCULAR VOLUME / MONOCYTE / NEUTROPHIL / NUCLEATED RED BLOOD CELLS / PLATELET COUNT: tissue Blood; for ALANINE AMINOTRANSFERASE / ALBUMIN / ALKALINE PHOSPHATASE / ASPARTATE AMINOTRANSFERASE / BLOOD UREA NITROGEN / CARBON DIOXIDE / CHLORIDE / CHOLESTEROL / CREATINE PHOSPHOKINASE / CREATININE / GLUCOSE / LACTATE DEHYDROGENASE / LIPASE / PHOSPHORUS / POTASSIUM / SODIUM / TOTAL BILIRUBIN / TOTAL PROTEIN / URIC ACID: tissue Plasma

CC(C)(Oc1ccc(CCNC(=O)c2ccc(Cl)cc2)cc1)C(=O)O [BEZAFIBRATE]
ABSOLUTE BASOPHIL (72 h, time 3 day): 0 CELLS/uL
ABSOLUTE EOSINOPHIL (72 h, time 3 day): 37.33 CELLS/uL
ABSOLUTE LYMPHOCYTE (72 h, time 3 day): 6295.33 CELLS/uL
ABSOLUTE MONOCYTE (72 h, time 3 day): 122.17 CELLS/uL
ABSOLUTE SEGMENTED NEUTROPHIL (72 h, time 3 day): 861.83 CELLS/uL
BASOPHIL (72 h, time 3 day): 0%
EOSINOPHIL (72 h, time 3 day): 0.5%
ERYTHROCYTE COUNT (72 h, time 3 day): 5.2 x10E6/uL
HEMATOCRIT (72 h, time 3 day): 32.58%
HEMOGLOBIN (72 h, time 3 day): 12.95 G/DL
LEUKOCYTE COUNT (72 h, time 3 day): 7.32 x10E3/uL
LYMPHOCYTE (72 h, time 3 day): 86%
MEAN CORPUSCULAR HEMOGLOBIN (72 h, time 3 day): 24.93 pg
MEAN CORPUSCULAR HEMOGLOBIN CONCENTRATION (72 h, time 3 day): 39.77 G/DL
MEAN CORPUSCULAR VOLUME (72 h, time 3 day): 62.65 fL
MONOCYTE (72 h, time 3 day): 1.67%
NEUTROPHIL (72 h, time 3 day): 11.83%
NUCLEATED RED BLOOD CELLS (72 h, time 3 day): 0 /100WBC
PLATELET COUNT (72 h, time 3 day): 1029 x10E3/uL
ALANINE AMINOTRANSFERASE (72 h, time 3 day): 63.67 u/L
ALBUMIN (72 h, time 3 day): 4.12 G/DL
ALKALINE PHOSPHATASE (72 h, time 3 day): 329.83 u/L
ASPARTATE AMINOTRANSFERASE (72 h, time 3 day): 77.67 u/L
BLOOD UREA NITROGEN (72 h, time 3 day): 18 mg/dL
CARBON DIOXIDE (72 h, time 3 day): 29.67 mmol/L
CHLORIDE (72 h, time 3 day): 102.67 MEQ/L
CHOLESTEROL (72 h, time 3 day): 64.5 mg/dL
CREATINE PHOSPHOKINASE (72 h, time 3 day): 178.67 u/L
CREATININE (72 h, time 3 day): 0.18 mg/dL
GLUCOSE (72 h, time 3 day): 163.83 mg/dL
LACTATE DEHYDROGENASE (72 h, time 3 day): 75.83 u/L
LIPASE (72 h, time 3 day): 10 u/L
PHOSPHORUS (72 h, time 3 day): 8.28 mg/dL
POTASSIUM (72 h, time 3 day): 4.79 MEQ/L
SODIUM (72 h, time 3 day): 142.22 MEQ/L
TOTAL BILIRUBIN (72 h, time 3 day): 0.22 mg/dL
TOTAL PROTEIN (72 h, time 3 day): 5.78 G/DL
URIC ACID (72 h, time 3 day): 0.87 mg/dL
BASOPHIL (120 h, time 5 day): 0.32%
EOSINOPHIL (120 h, time 5 day): 0.58%
ERYTHROCYTE COUNT (120 h, time 5 day): 7.26 x10E6/uL
HEMATOCRIT (120 h, time 5 day): 46.94%
HEMOGLOBIN (120 h, time 5 day): 14.9 G/DL
LEUKOCYTE COUNT (120 h, time 5 day): 8.69 x10E3/uL
LYMPHOCYTE (120 h, time 5 day): 81.52%
MEAN CORPUSCULAR HEMOGLOBIN (120 h, time 5 day): 20.58 pg
MEAN CORPUSCULAR HEMOGLOBIN CONCENTRATION (120 h, time 5 day): 31.8 G/DL
MEAN CORPUSCULAR VOLUME (120 h, time 5 day): 64.68 fL
MONOCYTE (120 h, time 5 day): 2.16%
NEUTROPHIL (120 h, time 5 day): 13.88%
PLATELET COUNT (120 h, time 5 day): 1531.2 x10E3/uL
ALANINE AMINOTRANSFERASE (120 h, time 5 day): 33.2 u/L
ALBUMIN (120 h, time 5 day): 3.74 G/DL
ALKALINE PHOSPHATASE (120 h, time 5 day): 318 u/L
ASPARTATE AMINOTRANSFERASE (120 h, time 5 day): 78.6 u/L
BLOOD UREA NITROGEN (120 h, time 5 day): 6 mg/dL
CHLORIDE (120 h, time 5 day): 108.4 MEQ/L
CHOLESTEROL (120 h, time 5 day): 63 mg/dL
CREATINE PHOSPHOKINASE (120 h, time 5 day): 251 u/L
CREATININE (120 h, time 5 day): 0.18 mg/dL
GLUCOSE (120 h, time 5 day): 125.6 mg/dL
PHOSPHORUS (120 h, time 5 day): 12.06 mg/dL
POTASSIUM (120 h, time 5 day): 5.92 MEQ/L
SODIUM (120 h, time 5 day): 146.8 MEQ/L
TOTAL BILIRUBIN (120 h, time 5 day): 0.16 mg/dL
TOTAL PROTEIN (120 h, time 5 day): 6.06 G/DL
ABSOLUTE BASOPHIL (time 7 day): 0 CELLS/uL
ABSOLUTE EOSINOPHIL (time 7 day): 19 CELLS/uL
ABSOLUTE LYMPHOCYTE (time 7 day): 7803.5 CELLS/uL
ABSOLUTE MONOCYTE (time 7 day): 117.83 CELLS/uL
ABSOLUTE SEGMENTED NEUTROPHIL (time 7 day): 1093 CELLS/uL
BASOPHIL (time 7 day): 0%
EOSINOPHIL (time 7 day): 0.17%
ERYTHROCYTE COUNT (time 7 day): 5.84 x10E6/uL
HEMATOCRIT (time 7 day): 35.75%
HEMOGLOBIN (time 7 day): 13.87 G/DL
LEUKOCYTE COUNT (time 7 day): 9.03 x10E3/uL
LYMPHOCYTE (time 7 day): 87.17%
MEAN CORPUSCULAR HEMOGLOBIN (time 7 day): 23.78 pg
MEAN CORPUSCULAR HEMOGLOBIN CONCENTRATION (time 7 day): 38.8 G/DL
MEAN CORPUSCULAR VOLUME (time 7 day): 61.25 fL
MONOCYTE (time 7 day): 1.17%
NEUTROPHIL (time 7 day): 11.5%
NUCLEATED RED BLOOD CELLS (time 7 day): 0 /100WBC
PLATELET COUNT (time 7 day): 1098.67 x10E3/uL
BASOPHIL (time 28 day): 0.42%
EOSINOPHIL (time 28 day): 0.58%
ERYTHROCYTE COUNT (time 28 day): 8.06 x10E6/uL
HEMATOCRIT (time 28 day): 48.44%
HEMOGLOBIN (time 28 day): 16.34 G/DL
LEUKOCYTE COUNT (time 28 day): 13.04 x10E3/uL
LYMPHOCYTE (time 28 day): 85.12%
MEAN CORPUSCULAR HEMOGLOBIN (time 28 day): 20.26 pg
MEAN CORPUSCULAR HEMOGLOBIN CONCENTRATION (time 28 day): 33.74 G/DL
MEAN CORPUSCULAR VOLUME (time 28 day): 60.1 fL
MONOCYTE (time 28 day): 1.44%
NEUTROPHIL (time 28 day): 11.28%
PLATELET COUNT (time 28 day): 1226 x10E3/uL
ALANINE AMINOTRANSFERASE (time 7 day): 66 u/L
ALBUMIN (time 7 day): 4.3 G/DL
ALKALINE PHOSPHATASE (time 7 day): 291.83 u/L
ASPARTATE AMINOTRANSFERASE (time 7 day): 80.5 u/L
BLOOD UREA NITROGEN (time 7 day): 15.67 mg/dL
CARBON DIOXIDE (time 7 day): 30 mmol/L
CHLORIDE (time 7 day): 101.67 MEQ/L
CHOLESTEROL (time 7 day): 69.67 mg/dL
CREATINE PHOSPHOKINASE (time 7 day): 363.33 u/L
CREATININE (time 7 day): 0.25 mg/dL
GLUCOSE (time 7 day): 146.5 mg/dL
LACTATE DEHYDROGENASE (time 7 day): 219.67 u/L
LIPASE (time 7 day): 11.33 u/L
PHOSPHORUS (time 7 day): 10.08 mg/dL
POTASSIUM (time 7 day): 5.22 MEQ/L
SODIUM (time 7 day): 144.67 MEQ/L
TOTAL BILIRUBIN (time 7 day): 0.12 mg/dL
TOTAL PROTEIN (time 7 day): 6.33 G/DL
URIC ACID (time 7 day): 0.75 mg/dL
ALANINE AMINOTRANSFERASE (time 28 day): 28.6 u/L
ALBUMIN (time 28 day): 3.94 G/DL
ALKALINE PHOSPHATASE (time 28 day): 254.6 u/L
ASPARTATE AMINOTRANSFERASE (time 28 day): 67.8 u/L
BLOOD UREA NITROGEN (time 28 day): 10.4 mg/dL
CHLORIDE (time 28 day): 104.6 MEQ/L
CHOLESTEROL (time 28 day): 57.6 mg/dL
CREATINE PHOSPHOKINASE (time 28 day): 224.8 u/L
CREATININE (time 28 day): 0.4 mg/dL
GLUCOSE (time 28 day): 140.6 mg/dL
PHOSPHORUS (time 28 day): 10.66 mg/dL
POTASSIUM (time 28 day): 6.58 MEQ/L
SODIUM (time 28 day): 148.6 MEQ/L
TOTAL BILIRUBIN (time 28 day): 0.24 mg/dL
TOTAL PROTEIN (time 28 day): 6.64 G/DL
